The source of these data is US10780092B2, “Fused pyrazine derivatives useful as soluble guanylate cyclase stimulators” (Merck Sharp & Dohme Corp., priority 2016, dated 2020).

For assay [1], the target named is human recombinant sGC enzyme (Homo sapiens (Human), UniProt Q02108+Q02153). In words: SEC competition binding assay with [3H] Compound B radioligand. Particulars: displacement of 1.6 nM [3H] Compound B, 24 h at 37° C. A digest of the protocol:
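Competition format: [3H] Compound B (1.6 nM) displaced from human recombinant sGC over 24 h at 37° C. in triethanolamine pH 7.4 buffer with MgCl2, BSA, DTT, 300 μM DETA/NO and 400 μM GTP (1% DMSO). Gel-filtration eluates counted by liquid scintillation; 1 μM Compound B defined non-specific binding; Ki by one-site fit.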

Assay [2] deals with hypoxia-induced pulmonary hypertension in rat. The assay can be described thus: Acute efficacy in hypoxia-induced pulmonary hypertension in rat following intratracheal (IT) administration. Type of assay: in vivo. Particulars: decrease in SBP at dose giving decrease in PAP ≥15 mmHg. The source says:
Acute Efficacy in Hypoxia-Induced Pulmonary Hypertension in Rat Following Intratracheal (IT) Administration Charles River Sprague-Dawley (CD) male rats weighing approximately 350 g were implanted with HD-S21 dual pressure telemetry transmitters (Data Sciences International (DSI)) into the pulmonary artery and femoral artery. This transmitter enables simultaneous measurement of both pulmonary and systemic hemodynamic parameters in the same animal. After a 7-10 day post-operative recovery period, animals were subjected to a normobaric hypoxic (10% oxygen) environment using a Higher Peak Mountain Air Generator (MAG-10) connected to a modified rodent cage via a fitted inlet port. Oxygen (at 10%), temperature, humidity, and CO2 were controlled within normal range and animals were maintained on a 12 hour light-dark cycle with ad libitum access to food and water. After two weeks exposure to 10% O2 hypoxic environment, systolic pulmonary arterial pressure readings increased from ˜25 mmHg to greater than 50 mmHg. Using a 48 hour baseline average, animals with readings between 50-110 mmHg (standard deviation of less than 10 mmHg) and minimal changes in systolic systemic blood pressure were enrolled for study. Animals were utilized for up to 2 studies per week for 4 weeks with a minimum of 2 days washout between doses of test agent. Compound or vehicle was administered intra-tracheally under light isoflurane anesthesia (5% in oxygen; flow rate 2.0 L/min for 3 minutes). Once anesthetized, rats were placed on an angled intubation stand in supine position and the trachea visualized using a small laryngoscope. Animals then received either 0.5 mL/kg of vehicle or 0.5 mL/kg vehicle containing compound intra-tracheally delivered via microsprayer by use of a Penn-Century Microsprayer® needle 3″ (Model IA-1B-GP) attached to a 1 mL high pressure syringe (Penn Century-Model B—SYR-PL1000) (Penn-Century, Philadelphia, Pa.). The Microsprayer® tip was inserted into the trachea up to the point at which the bend in the needle is close to the tip of the snout, which positions the tip of the Microsprayer® in front of the carina (bifurcation of trachea at the bronchi). After dose delivery the animal is placed on its back in the home cage for recovery. Hemodynamic measurements were continuously recorded and readings consolidated to hourly moving averages. Each animal received a vehicle on Day 1 followed by vehicle or test agent on Day 2. Change from vehicle baseline was calculated by subtracting the hourly Day 1 vehicle response from the hourly Day 2 response and treatment group data was expressed as mean±SEM. Decreases of systolic blood pressure (SBP) and systolic pulmonary arterial pressure (PAP) were measured at a particular IT dose (mpk milligrams per kilogram) for the following Example compounds. Compounds in the Table 13 achieved a minimum decrease in PAP of ≥15 mmHg for the corresponding decrease in SBP listed.

Assay [3] has as its target sGC α1/β1 heterodimer (Homo sapiens (Human), UniProt Q02108+Q02153). The assay can be described thus: Cell-based sGC functional assay (CASA assay), cGMP by HTRF. Particulars: CHO-K1/sGC cells; for Emax: CHO-K1, cGMP production as percentage of maximum of compound A (set to 100%), read-out: % Activation; for EC50: inflection point of cGMP production, 4P fit, read-out: IP. A digest of the protocol:
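cGMP made in CHO-K1/sGC (human α1/β1) cells is read by HTRF after compound treatment for 1 hr at 37° C, following 30 min at 25° C with or without 1 μM DETA-NO; IBMX 0.5 mM present. Values are % of standard compound maximum; 4P fit.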
In general terms: Time-resolved FRET reads energy transfer from a long-lived donor to a nearby acceptor.

Consider `CC1(c2cc(O)c(Cl)cn2)C(=O)Nc2nc(-c3cn4ccnc4c(Cc4ccccc4F)n3)nc(N)c21` (centres unmarked) [Example 4-B, 4-Amino-5-(5-chloro-4-hydroxypyridin-2-yl)-2-{8-[(2-fluorophenyl)methyl]imidazo[1,2-a]pyrazin-6-yl}-5-methyl-5,7-dihydro-6H-pyrrolo[2,3-d]pyrimidin-6-one], for which the Ki (in general, a measure of affinity in units of concentration, obtained from inhibition or displacement) in assay [1] is 0.259 nM. The “Category (decrease in SBP)” value in assay [2] (IT dose 0.03 mpk) is recorded as “A (decrease in SBP 0-5 mmHg)”. In assay [3], the Emax amounted to 136% and the EC50 came to 1920 nM.
For `CC1(c2cccc(O)c2)C(=O)Nc2nc(-c3cn4ccnc4c(Cc4cc(F)ccc4F)n3)nc(N)c21` (centres unmarked) [Example 11-B, 4-Amino-2-{8-[(2,5-difluorophenyl)methyl]imidazo[1,2-a]pyrazin-6-yl}-5-(3-hydroxyphenyl)-5-methyl-5,7-dihydro-6H-pyrrolo[2,3-d]pyrimidin-6-one], the Ki in assay [1] is 0.135 nM. For the same compound, the “Category (decrease in SBP)” value in assay [2] (IT dose 0.01 mpk) was “B (decrease in SBP 5-10 mmHg)”. In assay [3], the Emax amounted to 137% and the EC50 worked out at 503 nM.
The corresponding values for `CC1(c2ccc(Cl)c(O)c2)C(=O)Nc2nc(-c3cn4ccnc4c(CC4CCCCC4)n3)nc(N)c21` (centres unmarked) [Example 14-A, 4-Amino-5-(4-chloro-3-hydroxyphenyl)-2-(8-(cyclohexylmethyl)imidazo[1,2-a]pyrazin-6-yl)-5-methyl-5,7-dihydro-6H-pyrrolo[2,3-d]pyrimidin-6-one] are 0.156 nM, “A (decrease in SBP 0-5 mmHg)”, 68% and 144 nM.
The corresponding values for `CC1(c2ccc(Cl)c(O)c2)C(=O)Nc2nc(-c3cn4ccnc4c(Cc4ccccc4F)n3)nc(N)c21` (centres unmarked) [Example 8-A, 4-Amino-5-(4-chloro-3-hydroxyphenyl)-2-{8-[(2-fluorophenyl)methyl]imidazo[1,2-a]pyrazin-6-yl}-5-methyl-5,7-dihydro-6H-pyrrolo[2,3-d]pyrimidin-6-one] are 0.117 nM, “B (decrease in SBP 5-10 mmHg)”, 72% and 316 nM.
With `CC(C)CCc1nc(-c2nc(N)c3c(n2)NC(=O)C3(C)c2ccc(Cl)c(O)c2)cn2ccnc12` (centres unmarked) [Example 25-A, 4-Amino-5-(4-chloro-3-hydroxyphenyl)-2-(8-isopentylimidazo[1,2-a]pyrazin-6-yl)-5-methyl-5,7-dihydro-6H-pyrrolo[2,3-d]pyrimidin-6-one], in assay [1], the Ki was found to be 0.252 nM. Further, the “Category (decrease in SBP)” value in assay [2] (IT dose 0.03 mpk) was “B (decrease in SBP 5-10 mmHg)”. For the same compound, in assay [3], the Emax is 117% and the EC50 was 223 nM.
The corresponding values for `CC1(c2ccc(C(F)(F)F)c(O)c2)C(=O)Nc2nc(-c3cn4ccnc4c(Cc4ccccc4F)n3)nc(N)c21` (centres unmarked) [Example 3-B, 4-Amino-2-{8-[(2-fluorophenyl)methyl]imidazo[1,2-a]pyrazin-6-yl}-5-[3-hydroxy-4-(trifluoromethyl)phenyl]-5-methyl-5,7-dihydro-6H-pyrrolo[2,3-d]pyrimidin-6-one] are 0.219 nM, “A (decrease in SBP 0-5 mmHg)”, 98% and 2080 nM.
In the case of `CC1(c2ccc(F)c(O)c2)C(=O)Nc2nc(-c3cn4ccnc4c(Cc4ccccc4F)n3)nc(N)c21` (centres unmarked) [Example 13-B, 4-Amino-5-(4-fluoro-3-hydroxyphenyl)-2-{8-[(2-fluorophenyl)methyl]imidazo[1,2-a]pyrazin-6-yl}-5-methyl-5,7-dihydro-6H-pyrrolo[2,3-d]pyrimidin-6-one], the Ki in assay [1] was found to be 0.154 nM. The “Category (decrease in SBP)” value in assay [2] (IT dose 0.01 mpk) is on record as “A (decrease in SBP 0-5 mmHg)”. Moreover, in assay [3], the Emax turned out to be 100% and the EC50 is 821 nM.
For the compound `CC1(c2ccc(Cl)c(O)c2)C(=O)Nc2nc(-c3cn4ccnc4c(Cc4cccc(F)c4)n3)nc(N)c21` (centres unmarked) [Example 1-A, 4-Amino-5-(4-chloro-3-hydroxyphenyl)-2-{8-[(3-fluorophenyl)methyl]imidazo[1,2-a]pyrazin-6-yl}-5-methyl-5,7-dihydro-6H-pyrrolo[2,3-d]pyrimidin-6-one], in assay [1], the Ki was found to be 0.095 nM. For the same compound, the “Category (decrease in SBP)” value in assay [2] (IT dose 0.01 mpk) is reported as “A (decrease in SBP 0-5 mmHg)”. In assay [3], the Emax worked out at 118% and the EC50 amounted to 226 nM.
